# Laboratory results from article PMC13099078 (2023).
# Legend:
# [1] = system: vancomycin-binding aptamer (45-base; EAB sensor) (DNA, aptamer) CGAGGGTACCGCAATAGTACTTATTGTTCGCCTATTGTGGGTCGG; test: differential pulse voltammetry; conditions: 2 mM Mg2+, PBS; 1x PBS, 37°C; apparent; Langmuir fit
# [2] = system: vancomycin-binding aptamer (45-base; EAB sensor) (DNA, aptamer) CGAGGGTACCGCAATAGTACTTATTGTTCGCCTATTGTGGGTCGG; test: alternating current voltammetry; conditions: 2 mM Mg2+, PBS; 1x PBS, 37°C; apparent; Langmuir fit; 50 and 5 Hz
smiles,measurement,setting,value
CN[C@H](CC(C)C)C(=O)N[C@H]1C(=O)N[C@@H](CC(N)=O)C(=O)N[C@H]2C(=O)N[C@H]3C(=O)N[C@H](C(=O)N[C@H](C(=O)O)c4cc(O)cc(O)c4-c4cc3ccc4O)[C@H](O)c3ccc(c(Cl)c3)Oc3cc2cc(c3O[C@@H]2O[C@H](CO)[C@@H](O)[C@H](O)[C@H]2O[C@H]2C[C@](C)(N)[C@H](O)[C@H](C)O2)Oc2ccc(cc2Cl)[C@H]1O,Kd,[1],76 ± 6 µM
same,Kd,[2],46 ± 4 µM
